Data on 15 compounds can be found in patent US20240408169A1 (priority 2023, published 2024).

*1 amine or outer side, *2 acyl side, *3 side chain or, on linkers, in order; H or OH if unused. Where a SMILES comes first, the peptide text is derived from it. Bridges are numbered along the chain shown (N, C = ends). [ ]: non-standard residue; d: D form. The star is where a group is joined. X184 = CC(=O)N1CCC(c2ccc(F)cc2C[C@@H](C(=O)[*:2])N(C)[*:1])CC1; NMehhhLys(Me) = CN([C@@H](CCCCCCCN(C)[*:3])C(=O)[*:2])[*:1]; cBuCO(3,3-F2-1-CF3) = O=C(C1(C(F)(F)F)CC(F)(F)C1)*; Pro(trans-4-F) = O=C(O)[C@@H]1C[C@@H](F)CN1; Gly(cPr) = N[C@H](C(=O)O)C1CC1

One assay deals with T1, CyclinB1/CDK1 (Homo sapiens, UniProt P14635).
T1 construct: purchased Eurofins, discovery 14-450
Nature of the assay: Fluorescence Polarization (FP) competitive binding assay, Cyclin B1/Cdk1.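 Note: fluorescence polarization read after equilibration at room temperature, with IC50 taken from serially diluted dose-response curves.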 The settings on record: 10 nM Cyclin B1/Cdk1, 2 nM FAM probe; average of 2-3 independent experiments; read-out: Cyclin B FP IC50. For orientation: Fluorescence polarisation rises when a labelled molecule tumbles more slowly, as on binding a larger partner.

The next assay addresses T2, CyclinE1/CDK2 (Homo sapiens, UniProt P24864).
T2 construct: purchased Eurofins, discovery 14-475
Nature of the assay: Fluorescence Polarization (FP) competitive binding assay, Cyclin E1/Cdk2.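 Note: readings taken after two-hour equilibration at room temperature in HEPES buffer with NaCl, DTT, NP-40 and BSA, IC50 fitted from eight-concentration serial dilution series.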 The note with it: 10 nM Cyclin E1/Cdk2, 2 nM FAM probe; average of 2-3 independent experiments; read-out: Cyclin E FP IC50.

A further assay relates to NCI-H1048 cells. Nature of the assay: MTT proliferation assay, NCI-H1048.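 Note: Dose-response in 96-well plates over 8 or 10 concentration points, with exposure spanning 3-4 cell doublings.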 The assay is classed as cell-based. The settings on record: 5 days compound exposure, 1:3 serial dilution starting at 10 μM. Background: Formazan colour is commonly taken as a measure of viable cells.
A further assay relates to OVCAR3 cells. Nature of the assay: MTT proliferation assay, OVCAR3.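 Note: compound given as an 8- or 10-point series, one day after plating, with exposure covering roughly 3-4 cell doublings.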 The assay is classed as cell-based. The settings on record: 5 days compound exposure, 1:3 serial dilution starting at 10 μM.
The next assay deals with T3, CyclinA2/CDK2 (Homo sapiens, UniProt P20248).
T3 construct: purchased CRELUX Protein Services
Nature of the assay: Fluorescence Polarization (FP) competitive binding assay, Cyclin A2/Cdk2.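 Note: plates equilibrated two hours at room temperature before polarization reading, IC50 fitted from eight-concentration compound titration curves.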 The note with it: 8 nM Cyclin A2/Cdk2, 2 nM FAM probe; average of 2-3 independent experiments; read-out: Cyclin A FP IC50.

As a reminder, the IC50 is the midpoint of a concentration-inhibition curve. In general, GI50 refers to the concentration that inhibits growth by half. Higher therefore signals less potent growth inhibition. Regarding `CC(C)C[C@@H]1NC(=O)[C@@H](NC(=O)[C@@H](NC(=O)[C@@H]2C[C@@H](F)CN2C(=O)C2(C(F)(F)F)CC2)C2CC2)CC=CCCCCN(C)C(=O)[C@H](Cc2cc(Cl)ccc2Cl)N(C)C1=O` [Example 11], the IC50 was determined as 20 nM at CyclinB1/CDK1, 100 nM on CyclinE1/CDK2 and 170 nM at CyclinA2/CDK2. The GI50 in the assay with NCI-H1048 cells turned out to be 80 nM; in the assay with OVCAR3 cells, 210 nM.

For `CC(C)C[C@@H]1NC(=O)[C@@H](NC(=O)[C@@H](NC(=O)[C@@H]2C[C@@H](F)CN2C(=O)C2(C(F)(F)F)CC(F)(F)C2)C2CC2)CC=CCCCCN(C)C(=O)[C@H](Cc2cc(Cl)ccc2Cl)N(C)C1=O` [Example 12], the figures for the IC50 on CyclinB1/CDK1, on CyclinE1/CDK2 and on CyclinA2/CDK2 were 20 nM, 100 nM and 60 nM, respectively. For the same compound, the GI50 in the assay on NCI-H1048 cells is 30 nM; in the assay on OVCAR3 cells, 40 nM.

As to `CC[C@H](NC(=O)[C@@H]1C[C@@H](F)CN1C(=O)C1(C(F)(F)F)CC1)C(=O)N[C@H]1CC=CCCCCN(C)C(=O)[C@H](Cc2cc(Cl)ccc2Cl)N(C)C(=O)[C@H](CC(C)C)NC1=O` [Example 13], the figures for the IC50 on CyclinB1/CDK1, at CyclinE1/CDK2 and at CyclinA2/CDK2 were 20 nM, 100 nM and 100 nM, respectively. For the same compound, the concentration for 50% growth inhibition (GI50) in the assay with NCI-H1048 cells came out at 70 nM; in the assay on OVCAR3 cells, 240 nM.

For the compound `CC(C)C[C@@H]1NC(=O)[C@@H](N(C)C(=O)[C@@H](NC(=O)[C@@H]2C[C@@H](F)CN2C(=O)C2(C(F)(F)F)CC(F)(F)C2)C2CC2)CC=CCCCCNC(=O)[C@H](Cc2cc(Cl)ccc2C2=CCN(S(C)(=O)=O)CC2)N(C)C1=O` [Example 23], the IC50 on CyclinB1/CDK1 came out at 20 nM; on CyclinE1/CDK2, 5470 nM; at CyclinA2/CDK2 it was 120 nM. In addition, the GI50 in the assay on NCI-H1048 cells amounted to 180 nM; in the assay with OVCAR3 cells, 210 nM.

On to `CC(C)C[C@@H]1NC(=O)[C@@H](N(C)C(=O)[C@@H](NC(=O)[C@@H]2C[C@@H](F)CN2C(=O)C2(C(F)(F)F)CC(F)(F)C2)C2CC2)CC=CCCCCNC(=O)[C@H](Cc2cc(Cl)ccc2C2=CC[C@H](O)CC2)N(C)C1=O` [Example 24], for which the IC50 was determined as 20 nM on CyclinB1/CDK1, 1600 nM on CyclinE1/CDK2 and 60 nM at CyclinA2/CDK2. Also, the GI50 with NCI-H1048 cells was 90 nM; in the assay on OVCAR3 cells, 170 nM.

With `CC(C)C[C@@H]1NC(=O)[C@@H](N(C)C(=O)[C@@H](NC(=O)[C@@H]2C[C@@H](F)CN2C(=O)C2(C(F)(F)F)CC(F)(F)C2)C2CC2)CC=CCCCCNC(=O)[C@H](Cc2cc(Cl)ccc2-c2cnn(CCO)c2)N(C)C1=O` [Example 28], the IC50 at CyclinB1/CDK1 came to 20 nM; at CyclinE1/CDK2 it was 740 nM; on CyclinA2/CDK2 it was 40 nM. Besides, the GI50 in the assay on NCI-H1048 cells came to 80 nM; in the assay on OVCAR3 cells, 170 nM.

As for `CC(C)C[C@@H]1NC(=O)[C@@H](N(C)C(=O)[C@@H](NC(=O)[C@@H]2C[C@@H](F)CN2C(=O)C2(C(F)(F)F)CC(F)(F)C2)C2CC2)CC=CCCCCN(C)C(=O)[C@H](Cc2cc(Cl)ccc2-c2cnn(C)c2)N(C)C1=O` [Example 29], the values for the half-maximal inhibitory concentration (IC50) on CyclinB1/CDK1, at CyclinE1/CDK2 and on CyclinA2/CDK2 were 20 nM, 690 nM and 30 nM, respectively. Besides, the results for the GI50 in the assay with NCI-H1048 cells and with OVCAR3 cells were 40 nM and 70 nM, respectively.

`CC(C)C[C@@H]1NC(=O)[C@@H](N(C)C(=O)[C@@H](NC(=O)[C@@H]2C[C@@H](F)CN2C(=O)C2(C(F)(F)F)CC(F)(F)C2)C2CC2)CC=CCCCCN(C)C(=O)[C@H](Cc2cc(Cl)ccc2-c2cncnc2)N(C)C1=O` [Example 30]: the IC50 on CyclinB1/CDK1 is 20 nM; at CyclinE1/CDK2, 5050 nM; on CyclinA2/CDK2, 240 nM. For the same compound, the GI50 was 130 nM in the assay with NCI-H1048 cells and 140 nM with OVCAR3 cells.

With `CC(=O)N1CC=C(c2ccc(Cl)cc2C[C@H]2C(=O)N(C)CCCCC=CC[C@H](N(C)C(=O)[C@@H](NC(=O)[C@@H]3C[C@@H](F)CN3C(=O)C3(C(F)(F)F)CC(F)(F)C3)C3CC3)C(=O)N[C@@H](CC(C)C)C(=O)N2C)CC1` [Example 31], the 50% inhibitory concentration (IC50) turned out to be 20 nM at CyclinB1/CDK1, 2200 nM at CyclinE1/CDK2 and 30 nM on CyclinA2/CDK2. Further, the GI50 with NCI-H1048 cells was 80 nM; in the assay on OVCAR3 cells, 150 nM.

In the case of `CC(C)C[C@@H]1NC(=O)[C@@H](N(C)C(=O)[C@@H](NC(=O)[C@@H]2C[C@@H](F)CN2C(=O)C2(C(F)(F)F)CC(F)(F)C2)C2CC2)CC=CCCCCN(C)C(=O)[C@H](Cc2cc(F)ccc2-c2cnn(C)c2)N(C)C1=O` [Example 37], the IC50 on CyclinB1/CDK1 came out at 20 nM; at CyclinE1/CDK2 it was 370 nM; at CyclinA2/CDK2, 50 nM. Further, the concentration for 50% growth inhibition (GI50) with NCI-H1048 cells came to 40 nM; in the assay on OVCAR3 cells, 50 nM.

As for `CC(C)C[C@@H]1NC(=O)[C@@H](N(C)C(=O)[C@@H](NC(=O)[C@@H]2C[C@@H](F)CN2C(=O)C2(C(F)(F)F)CC(F)(F)C2)C2CC2)CC=CCCCCN(C)C(=O)[C@H](Cc2cc(F)ccc2-c2cncnc2)N(C)C1=O` [Example 38], the 50% inhibitory concentration (IC50) came to 20 nM on CyclinB1/CDK1, 1760 nM on CyclinE1/CDK2 and 180 nM on CyclinA2/CDK2. Further, the values for the GI50 in the assay on NCI-H1048 cells and in the assay on OVCAR3 cells were 60 nM and 160 nM, respectively.

For the compound `CC(=O)N1CC=C(c2ccc(F)cc2C[C@H]2C(=O)N(C)CCCCC=CC[C@H](N(C)C(=O)[C@@H](NC(=O)[C@@H]3C[C@@H](F)CN3C(=O)C3(C(F)(F)F)CC(F)(F)C3)C3CC3)C(=O)N[C@@H](CC(C)C)C(=O)N2C)CC1` [Example 39], the IC50 on CyclinB1/CDK1 was 20 nM; at CyclinE1/CDK2 it was 940 nM; at CyclinA2/CDK2, 60 nM. Moreover, the 50% growth inhibitory concentration (GI50) is 90 nM in the assay with NCI-H1048 cells and 210 nM with OVCAR3 cells.

`CC(C)C[C@@H]1NC(=O)[C@@H](N(C)C(=O)[C@@H](NC(=O)[C@@H]2C[C@@H](F)CN2C(=O)C2(C(F)(F)F)CCC2)C2CC2)CC=CCCCCN(C)C(=O)[C@H](Cc2cc(F)ccc2-c2cncnc2)N(C)C1=O` [Example 41]: the IC50 on CyclinB1/CDK1 was 20 nM; on CyclinE1/CDK2, 810 nM; on CyclinA2/CDK2, 160 nM. Moreover, the GI50 in the assay with NCI-H1048 cells stood at 100 nM; with OVCAR3 cells it was 130 nM.

In the case of `CC(=O)N1CC=C(c2ccc(F)cc2C[C@H]2C(=O)N(C)CCCCC=CC[C@H](N(C)C(=O)[C@@H](NC(=O)[C@@H]3C[C@@H](F)CN3C(=O)C3(C(F)(F)F)CCC3)C3CC3)C(=O)N[C@@H](CC(C)C)C(=O)N2C)CC1` [Example 42], the values for the IC50 at CyclinB1/CDK1, at CyclinE1/CDK2 and on CyclinA2/CDK2 were 20 nM, 440 nM and 40 nM, respectively. Moreover, the 50% growth inhibitory concentration (GI50) is 70 nM in the assay with NCI-H1048 cells and 210 nM in the assay with OVCAR3 cells.

In the case of `CC(=O)N1CCC(c2ccc(F)cc2C[C@H]2C(=O)N(C)CCCCCCC[C@H](N(C)C(=O)[C@@H](NC(=O)[C@@H]3C[C@@H](F)CN3C(=O)C3(C(F)(F)F)CC(F)(F)C3)C3CC3)C(=O)N[C@@H](CC(C)C)C(=O)N2C)CC1` [Example 45, (2S,4R)—N—((S)-2-(((3S,6S,9S)-3-(2-(1-acetylpiperidin-4-yl)-5-fluorobenzyl)-6-isobutyl-1,4-dimethyl-2,5,8-trioxo-1,4,7-triazacyclohexadecan-9-yl)(methyl)amino)-1-cyclopropyl-2-oxoethyl)-1-(3,3-difluoro-1-(trifluoromethyl)cyclobutane-1-carbonyl)-4-fluoropyrrolidine-2-carboxamide] ({cBuCO(3,3-F2-1-CF3)}-[Pro(trans-4-F)][Gly(cPr)][NMehhhLys(Me)]L[X184]; lactam 3-C), the results for the IC50 on CyclinB1/CDK1, on CyclinE1/CDK2 and at CyclinA2/CDK2 were 20 nM, 330 nM and 100 nM, respectively. Also, the GI50 came to 20 nM with NCI-H1048 cells and 40 nM in the assay with OVCAR3 cells.
